Assays:
flt-3 = biological target: T1, flt-3 (Homo sapiens, UniProt P36888); assay: flt-3 Luciferase-Coupled Chemiluminescent Kinase assay (LCCA); type: biochemical
T1 construct: baculovirus expressed human Flt-3 kinase domain R571-S993
T1 sequence (P36888 571-993): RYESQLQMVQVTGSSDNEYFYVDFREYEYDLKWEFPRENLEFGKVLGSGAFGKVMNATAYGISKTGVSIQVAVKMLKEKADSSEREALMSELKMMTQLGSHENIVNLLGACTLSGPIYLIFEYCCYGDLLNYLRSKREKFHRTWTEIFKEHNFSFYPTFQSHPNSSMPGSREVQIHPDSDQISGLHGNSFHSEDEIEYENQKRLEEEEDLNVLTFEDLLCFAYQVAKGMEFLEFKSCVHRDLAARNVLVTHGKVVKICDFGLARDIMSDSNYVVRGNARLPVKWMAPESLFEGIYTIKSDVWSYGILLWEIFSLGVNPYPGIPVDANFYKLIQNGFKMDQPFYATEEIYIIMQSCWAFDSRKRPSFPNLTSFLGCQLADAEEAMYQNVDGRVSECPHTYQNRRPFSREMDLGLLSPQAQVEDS
Protocol: (§1) In the LCCA assays, kinase activity is measured as the percent ATP consumed following the kinase reaction using luciferase-luciferin-coupled chemiluminescence. Greiner 384-well white, clear bottom, medium-binding plates are used for LCCA. Briefly, the kinase reaction is initiated by mixing compounds, ATP and kinase in a 20 uL volume. The mixture is incubated at ambient temperature for 2-4 hrs. At the end of the kinase reaction, a 20 uL luciferase-luciferin mix is added and the chemiluminescent signal is read using a Wallac Victor^2 reader. The luciferase-luciferin mix consists of 50 mM HEPES, pH 7.8, 8.5 ug/mL oxalic acid (pH 7.8), 5 (or 50) mM DTT, 0.4% Triton X-100, 0.25 mg/mL coenzyme A, 63 uM AMP, 28 ug/mL luciferin and 40,000 units of light/mL luciferase. For the LCCA assays, total ATP consumption has been standardized to 25-45% and the IC50 values correlates well with those determined by radiometric assays.
Flt-3 biochemical activity was assessed using a Luciferase-Coupled Chemiluminescent Kinase assay (LCCA) format. Kinase activity was measured as the percent ATP remaining following the kinase reaction. Remaining ATP was detected by luciferase-luciferin-coupled chemiluminescence. Specifically, the reaction was initiated by mixing test compounds, 5 μM ATP, 3 μM poly-EY and 5 nM Flt-3 (baculovirus expressed human Flt-3 kinase domain R571-S993) in a 20 uL assay buffer (20 mM Tris-HCL pH7.5, 10 mM MgCl2, 0.01% Triton X-100, 1 mM DTT, 2 mM MnCl2). The mixture is incubated at ambient temperature for 3 hours after which 20 uL luciferase-luciferin mix is added and the chemiluminescent signal read using a Wallac Victor^2 reader. The luciferase-luciferin mix consists of 50 mM HEPES, pH 7.8, 8.5 ug/mL oxalic acid (pH 7.8), 5 (or 50) mM DTT, 0.4% Triton X-100, 0.25 mg/mL coenzyme A, 63 uM AMP, 28 ug/mL luciferin and 40,000 units of light/mL luciferase.

EGFR = EGFR (Homo sapiens, UniProt P00533); assay: EGFR kinase inhibition assay; type: biochemical
Protocol: (§2) Kinase activity and compound inhibition are investigated using one or more of the three assay formats described below. The ATP concentrations for each assay are selected to be close to the Michaelis-Menten constant (KM) for each individual kinase. Dose-response experiments are performed at 10 different inhibitor concentrations in a 384-well plate format. The data are fitted to four-parameter equation (2) below; where Y is the observed signal, X is the inhibitor concentration, Min is the background signal in the absence of enzyme (0% enzyme activity), Max is the signal in the absence of inhibitor (100% enzyme activity), IC50 is the inhibitor concentration at 50% enzyme inhibition and H represents the empirical Hill's slope to measure the cooperativity. Typically H is close to unity. Y=Min+(Max−Min)/(1+(X/IC50)^H) Equation (2) ^33P Phosphoryl Transfer Assay: […]
(§3) Greiner 384-well white, clear bottom, high binding plates are coated with 2 μg/well of protein or peptide substrate in a 50 μL volume overnight at ambient temperature. The coating buffer typically contains 40 μg/mL substrate, 22.5 mM Na2CO3, 27.5 mM NaHCO3, 150 mM NaCl and 3 mM NaN3. The coating solution is aspirated and the plates are washed once with 50 μL of assay buffer and padded dry. Subsequently compounds and enzymes are mixed with γ^33P-ATP (3.3 μCi/nmol) in a total volume of 20 uL in suitable assay buffers. The mixture is incubated at ambient temperature for 1.5-2.5 hrs and terminated by aspiration using a Molecular Devices EMBLA 96-head plate washer. The plates are subsequently washed 6-12 times with PBST or TBS buffer. Scintillation fluid (50 μl/well) is then added, the plates are sealed and activity assessed by liquid scintillation spectrometry using a Perkin Elmer MicroBeta TriLux.
as §1
(§4) AlphaScreen technology is a proximity assay which utilizes the increase in fluorescent signal occurring when donor and acceptor beads are close in proximity. Biotinylated poly(Glu,Tyr) 4:1 is used as the kinase substrate, in conjunction with streptavidin-coated donor beads and anti-phosphortyrosine antibody PY100-coated acceptor beads. Upon phosphorylation, the peptide substrate can bind to both donor and acceptor beads giving rise to an increase in fluorescence. Compounds, ATP, biotinylated poly(Glu, Tyr) and kinases are mixed in a volume of 20 uL for 1 hr at ambient temperature using Greiner 384-well white clear bottom medium binding plates. Following incubation a 10 uL solution containing […] AlphaScreen beads, 75 mM Hepes, pH 7.4, 300 mM NaCl, 120 mM EDTA, 0.3% BSA and 0.03% Tween-20 is added to each well. After 2-16 hr incubation of the beads, plates are read in a Perkin Elmer AlphaQuest reader. The IC50 values correlates well with those of radiometric assays.

EphB4 = biological target: T2, EphB4 (Homo sapiens, UniProt P54760); assay: EphB4 kinase inhibition assay; type: biochemical
T2 sequence (P54760 16-987): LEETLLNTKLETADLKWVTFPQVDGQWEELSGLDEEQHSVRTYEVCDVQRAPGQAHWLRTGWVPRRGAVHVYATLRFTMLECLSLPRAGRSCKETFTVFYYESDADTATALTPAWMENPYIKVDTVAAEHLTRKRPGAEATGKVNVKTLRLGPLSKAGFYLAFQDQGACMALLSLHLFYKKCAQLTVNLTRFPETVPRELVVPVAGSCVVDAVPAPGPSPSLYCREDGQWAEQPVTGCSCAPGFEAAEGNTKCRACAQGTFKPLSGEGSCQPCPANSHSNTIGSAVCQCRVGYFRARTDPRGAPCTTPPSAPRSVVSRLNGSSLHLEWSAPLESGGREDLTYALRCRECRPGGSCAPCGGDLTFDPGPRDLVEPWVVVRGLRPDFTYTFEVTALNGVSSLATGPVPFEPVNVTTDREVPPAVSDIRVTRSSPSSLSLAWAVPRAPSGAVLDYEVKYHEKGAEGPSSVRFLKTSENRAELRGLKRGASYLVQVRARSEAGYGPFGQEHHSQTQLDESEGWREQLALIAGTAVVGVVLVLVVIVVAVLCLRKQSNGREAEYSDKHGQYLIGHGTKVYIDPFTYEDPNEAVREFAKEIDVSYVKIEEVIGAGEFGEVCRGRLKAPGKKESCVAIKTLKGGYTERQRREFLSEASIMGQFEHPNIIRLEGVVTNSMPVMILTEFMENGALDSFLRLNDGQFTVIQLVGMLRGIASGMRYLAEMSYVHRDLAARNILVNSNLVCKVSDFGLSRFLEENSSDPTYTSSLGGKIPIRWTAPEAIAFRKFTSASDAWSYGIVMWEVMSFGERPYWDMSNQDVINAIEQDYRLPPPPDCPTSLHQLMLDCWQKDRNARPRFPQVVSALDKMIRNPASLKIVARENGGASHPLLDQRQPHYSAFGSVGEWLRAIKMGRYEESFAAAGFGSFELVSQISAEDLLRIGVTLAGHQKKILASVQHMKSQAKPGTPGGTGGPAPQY
Protocol: as §2, §3, §1, §4

c-Kit = c-Kit (Homo sapiens, UniProt P10721); assay: c-Kit biochemical assay (AlphaScreen)
From the text: as §4
c-Kit biochemical activity was assessed using AlphaScreen™ (Perkin Elmer) technology, described above. Test compounds, ATP, biotinylated poly(Glu, Tyr) and c-Kit kinase were combined in a volume of 20 μL in a 384-well white, medium binding microtiter plate (Greiner). Reaction mixtures were incubated for 1 hr at ambient temperature. Reactions were quenched by addition of 10 uL of […] AlphaScreen bead suspension containing 75 mM Hepes, pH 7.4, 300 mM NaCl, 120 mM EDTA, 0.3% BSA and 0.03% Tween-20. After 16 hr incubation at ambient temperature plates were read using an AlphaQuest reader (Perkin Elmer).

c-Kit, sequence (P10721 26-976): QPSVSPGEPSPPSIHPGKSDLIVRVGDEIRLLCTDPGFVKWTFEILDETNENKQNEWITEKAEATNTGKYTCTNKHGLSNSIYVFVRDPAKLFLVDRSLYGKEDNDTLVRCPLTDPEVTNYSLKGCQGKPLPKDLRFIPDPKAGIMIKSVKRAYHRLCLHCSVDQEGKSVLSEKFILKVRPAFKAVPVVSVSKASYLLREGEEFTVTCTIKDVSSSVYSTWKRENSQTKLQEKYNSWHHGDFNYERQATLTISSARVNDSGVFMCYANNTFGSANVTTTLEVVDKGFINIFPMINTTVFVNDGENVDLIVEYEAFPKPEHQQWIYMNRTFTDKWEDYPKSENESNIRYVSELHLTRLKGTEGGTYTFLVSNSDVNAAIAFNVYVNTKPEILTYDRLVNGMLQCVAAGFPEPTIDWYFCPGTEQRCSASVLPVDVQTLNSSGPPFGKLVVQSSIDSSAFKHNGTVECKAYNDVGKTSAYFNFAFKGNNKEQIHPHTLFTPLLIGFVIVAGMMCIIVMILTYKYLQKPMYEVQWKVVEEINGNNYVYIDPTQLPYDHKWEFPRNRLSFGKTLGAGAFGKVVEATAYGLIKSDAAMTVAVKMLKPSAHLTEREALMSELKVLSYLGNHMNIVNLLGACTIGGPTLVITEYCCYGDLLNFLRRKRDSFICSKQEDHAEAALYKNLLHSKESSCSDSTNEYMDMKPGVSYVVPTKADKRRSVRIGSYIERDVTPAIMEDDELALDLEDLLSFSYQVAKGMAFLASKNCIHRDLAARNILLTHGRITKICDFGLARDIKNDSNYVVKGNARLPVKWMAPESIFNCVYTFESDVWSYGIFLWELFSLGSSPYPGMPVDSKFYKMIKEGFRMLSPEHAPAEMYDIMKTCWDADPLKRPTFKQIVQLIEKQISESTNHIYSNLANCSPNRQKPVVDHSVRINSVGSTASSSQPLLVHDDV
EGFR, sequence (P00533 25-1210, species assumed): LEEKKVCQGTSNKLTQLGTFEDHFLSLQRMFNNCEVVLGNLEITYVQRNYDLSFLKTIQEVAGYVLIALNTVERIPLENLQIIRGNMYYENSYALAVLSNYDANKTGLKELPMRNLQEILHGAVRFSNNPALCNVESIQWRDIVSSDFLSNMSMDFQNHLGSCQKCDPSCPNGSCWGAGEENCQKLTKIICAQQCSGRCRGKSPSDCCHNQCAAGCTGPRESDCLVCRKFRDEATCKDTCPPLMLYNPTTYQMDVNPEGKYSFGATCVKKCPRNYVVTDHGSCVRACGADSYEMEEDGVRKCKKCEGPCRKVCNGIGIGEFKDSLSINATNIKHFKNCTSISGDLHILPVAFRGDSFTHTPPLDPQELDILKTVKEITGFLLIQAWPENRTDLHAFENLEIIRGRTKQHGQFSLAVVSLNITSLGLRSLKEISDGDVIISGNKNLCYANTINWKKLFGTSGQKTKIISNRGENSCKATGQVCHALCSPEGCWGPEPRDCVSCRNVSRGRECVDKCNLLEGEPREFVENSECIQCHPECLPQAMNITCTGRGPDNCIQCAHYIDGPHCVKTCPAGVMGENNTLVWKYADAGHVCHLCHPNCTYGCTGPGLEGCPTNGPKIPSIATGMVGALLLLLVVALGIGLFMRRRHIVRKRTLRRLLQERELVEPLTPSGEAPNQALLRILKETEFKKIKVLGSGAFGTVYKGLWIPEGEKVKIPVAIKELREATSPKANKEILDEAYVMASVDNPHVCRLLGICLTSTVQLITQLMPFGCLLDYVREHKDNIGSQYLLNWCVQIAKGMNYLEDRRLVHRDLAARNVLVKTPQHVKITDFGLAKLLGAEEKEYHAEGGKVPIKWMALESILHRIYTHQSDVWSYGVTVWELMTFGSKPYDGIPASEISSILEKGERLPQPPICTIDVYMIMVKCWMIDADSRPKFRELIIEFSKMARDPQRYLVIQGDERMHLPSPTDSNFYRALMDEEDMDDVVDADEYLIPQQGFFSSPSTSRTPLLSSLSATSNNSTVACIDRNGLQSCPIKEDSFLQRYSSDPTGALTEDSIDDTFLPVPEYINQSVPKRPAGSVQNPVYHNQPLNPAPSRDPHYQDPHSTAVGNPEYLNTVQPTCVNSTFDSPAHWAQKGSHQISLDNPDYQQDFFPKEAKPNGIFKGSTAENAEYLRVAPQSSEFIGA

IC50 (flt-3)	IC50 (EGFR)	IC50 (EphB4)	IC50 (c-Kit)	Compound
< 50 nM	> 5000 nM	> 5000 nM	< 50 nM	COc1cc(NC(=O)Nc2ccc(-c3cc(-c4nc5ccc(N6CCN(C)CC6)cc5[nH]4)n[nH]3)cc2)cc(OC)c1 [Entry 11, N-[3,5-bis(methyloxy)phenyl]-N′-(4-{3-[6-(4-methylpiperazin-1-yl)-1H-benzimidazol-2-yl]-1H-pyrazol-5-yl}phenyl)urea]
< 50 nM	> 5000 nM	> 5000 nM	< 50 nM	CN1CCN(c2ccc3[nH]c(-c4cc(-c5ccc(NC(=O)Nc6ccc(OC(F)(F)F)cc6)cc5)[nH]n4)nc3c2)CC1 [Entry 12, N-(4-{3-[5-(4-methylpiperazin-1-yl)-1H-benzimidazol-2-yl]-1H-pyrazol-5-yl}phenyl)-N′-{4-[(trifluoromethyl)oxy]phenyl} urea]
< 50 nM	> 5000 nM	> 5000 nM	< 50 nM	CN1CCN(c2ccc3[nH]c(-c4cc(-c5ccc(NC(=O)Nc6ccc(Cl)c(C(F)(F)F)c6)cc5)[nH]n4)nc3c2)CC1 [Entry 14, N-[4-chloro-3-(trifluoromethyl)phenyl]-N′-(4-{3-[5-(4-methylpiperazin-1-yl)-1H-benzimidazol-2-yl]-1H-pyrazol-5-yl}phenyl)urea]
< 50 nM	> 5000 nM	500 to 5000 nM	< 50 nM	CN1CCN(c2ccc3[nH]c(-c4cc(-c5ccc(NC(=O)Nc6cccc(C(F)(F)F)c6)cc5)[nH]n4)nc3c2)CC1 [Entry 15, N-(4-{3-[5-(4-methylpiperazin-1-yl)-1H-benzimidazol-2-yl]-1H-pyrazol-5-yl}phenyl)-N′-[3-(trifluoromethyl)phenyl]urea]
< 50 nM	> 5000 nM	> 5000 nM	< 50 nM	CN1CCN(c2ccc(-c3cc(-c4ccc(NC(=O)Nc5ccc(Cl)c(C(F)(F)F)c5)cc4)[nH]n3)cc2)CC1 [Entry 16, N-[4-chloro-3-(trifluoromethyl)phenyl]-N′-(4-{3-[4-(4-methylpiperazin-1-yl)phenyl]-1H-pyrazol-5-yl}phenyl)urea]
< 50 nM	> 5000 nM	> 5000 nM	< 50 nM	CN1CCN(c2ccc3[nH]c(-c4cc(-c5ccc(NC(=O)Nc6ccc(Cl)cc6)cc5)[nH]n4)nc3c2)CC1 [Entry 18, N-(4-chlorophenyl)-N′-(4-{3-[5-(4-methylpiperazin-1-yl)-1H-benzimidazol-2-yl]-1H-pyrazol-5-yl}phenyl)urea]
< 50 nM	> 5000 nM	> 5000 nM	< 50 nM	CN1CCN(c2ccc3[nH]c(-c4cc(-c5ccc(NC(=O)Nc6cc(F)cc(F)c6)cc5)[nH]n4)nc3c2)CC1 [Entry 19, N-(3,5-difluorophenyl)-N′-(4-{3-[5-(4-methylpiperazin-1-yl)-1H-benzimidazol-2-yl]-1H-pyrazol-5-yl}phenyl)urea]
< 50 nM	> 5000 nM	> 5000 nM	< 50 nM	COc1cccc(NC(=O)Nc2ccc(-c3cc(-c4nc5cc(N6CCN(C)CC6)ccc5[nH]4)n[nH]3)cc2)c1 [Entry 20, N-[3-(methyloxy)phenyl]-N′-(4-{3-[5-(4-methylpiperazin-1-yl)-1H-benzimidazol-2-yl]-1H-pyrazol-5-yl}phenyl)urea]
< 50 nM	> 5000 nM	> 5000 nM	< 50 nM	CCN1CCN(c2ccc(-c3cc(-c4ccc(NC(=O)Nc5ccc(Cl)c(C(F)(F)F)c5)cc4)[nH]n3)cc2)CC1 [Entry 21, N-[4-chloro-3-(trifluoromethyl)phenyl]-N′-(4-{3-[4-(4-ethylpiperazin-1-yl)phenyl]-1H-pyrazol-5-yl}phenyl)urea]
< 50 nM	> 5000 nM	> 5000 nM	< 50 nM	CN1CCN(c2ccc3[nH]c(-c4cc(-c5ccc(NC(=O)Nc6cccc(F)c6)cc5)[nH]n4)nc3c2)CC1 [Entry 22, N-(3-fluorophenyl)-N′-(4-{3-[5-(4-methylpiperazin-1-yl)-1H-benzimidazol-2-yl]-1H-pyrazol-5-yl}phenyl)urea]

— patent publication US8710038B2, “Pyrazole kinase modulators and methods of use” (Exelixis, Inc., priority 2004, dated 2014)
